From ChEMBL document CHEMBL5108050, “Discovery of a New Class of Uracil Derivatives as Potential Mixed Lineage Kinase Domain-like Protein (MLKL) Inhibitors” (J Med Chem, 2022)

Tests used:
HT-29 = assay: Anti-necroptic activity in human HT-29 cells assessed as inhibition of TSZ (TNFalpha, Smac mimetic and z-VAD-FMK) induced necroptosis incubated for 24 hrs by celltiter-glo luminescent cell viability assay; format: functional, cell-based; settings: HT-29, 24 h
[1] = biological target: T1, Receptor-interacting serine/threonine-protein kinase 1 (Homo sapiens) (UniProt Q13546); assay: Inhibition of RIP1 (1 to 375 residues) (unknown origin) assessed as substrate phosphorylation using MBP and ATP as substrate at 10 uM preincubated for 15 mins followed by substrate addition and measured after 90 mins by ADP-Glo luminescence assay; values are per cent of control; settings: time 105.0 min
T1 sequence (whole entry): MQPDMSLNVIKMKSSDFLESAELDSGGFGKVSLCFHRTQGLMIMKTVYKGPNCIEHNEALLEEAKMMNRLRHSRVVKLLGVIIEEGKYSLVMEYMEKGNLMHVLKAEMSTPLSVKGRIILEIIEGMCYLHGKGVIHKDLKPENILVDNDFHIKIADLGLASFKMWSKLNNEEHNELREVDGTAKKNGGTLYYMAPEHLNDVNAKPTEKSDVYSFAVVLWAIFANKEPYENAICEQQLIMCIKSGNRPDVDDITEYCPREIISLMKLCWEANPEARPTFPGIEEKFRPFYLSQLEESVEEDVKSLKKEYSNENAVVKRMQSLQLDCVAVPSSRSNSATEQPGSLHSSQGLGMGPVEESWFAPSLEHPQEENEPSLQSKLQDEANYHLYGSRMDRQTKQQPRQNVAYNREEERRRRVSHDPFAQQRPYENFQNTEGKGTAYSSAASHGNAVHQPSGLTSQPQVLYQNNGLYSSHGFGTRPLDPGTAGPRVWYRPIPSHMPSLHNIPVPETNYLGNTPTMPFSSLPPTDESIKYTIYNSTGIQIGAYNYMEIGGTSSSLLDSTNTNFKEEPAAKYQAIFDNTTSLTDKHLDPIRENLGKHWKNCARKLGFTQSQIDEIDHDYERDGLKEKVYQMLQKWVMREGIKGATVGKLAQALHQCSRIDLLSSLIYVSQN

[2] = biological target: T1, Receptor-interacting serine/threonine-protein kinase 1 (Homo sapiens); assay: Inhibition of RIP1 (1 to 375 residues) (unknown origin) assessed as substrate phosphorylation using MBP and ATP as substrate at 1 uM preincubated for 15 mins followed by substrate addition and measured after 90 mins by ADP-Glo luminescence assay; values are per cent of control; settings: time 105.0 min
[3] = biological target: Receptor-interacting serine/threonine-protein kinase 3 (Homo sapiens) (UniProt Q9Y572); assay: Inhibition of full length RIP3 (unknown origin) assessed as substrate phosphorylation using MBP and ATP as substrate at 10 uM preincubated for 15 mins followed by substrate addition and measured after 90 mins by ADP-Glo luminescence assay; values are per cent of control; settings: time 105.0 min
Chain of Receptor-interacting serine/threonine-protein kinase 3 (Homo sapiens) (Q9Y572 whole entry, looked up): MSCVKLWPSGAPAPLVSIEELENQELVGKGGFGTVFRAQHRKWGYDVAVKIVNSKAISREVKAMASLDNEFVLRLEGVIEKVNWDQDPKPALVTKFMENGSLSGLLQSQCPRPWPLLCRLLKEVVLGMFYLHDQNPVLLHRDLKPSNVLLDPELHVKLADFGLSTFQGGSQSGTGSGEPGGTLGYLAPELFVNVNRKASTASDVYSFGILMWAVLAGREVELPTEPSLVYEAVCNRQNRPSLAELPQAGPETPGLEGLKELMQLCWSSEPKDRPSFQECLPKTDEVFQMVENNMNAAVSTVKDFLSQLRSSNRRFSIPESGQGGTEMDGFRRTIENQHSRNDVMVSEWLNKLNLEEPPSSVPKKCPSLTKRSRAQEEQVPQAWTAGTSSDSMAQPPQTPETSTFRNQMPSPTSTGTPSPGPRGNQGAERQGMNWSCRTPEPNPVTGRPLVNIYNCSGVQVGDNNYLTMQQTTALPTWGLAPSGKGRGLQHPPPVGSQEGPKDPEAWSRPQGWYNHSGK

[4] = biological target: Receptor-interacting serine/threonine-protein kinase 3 (Homo sapiens) (UniProt Q9Y572); assay: Inhibition of full length RIP3 (unknown origin) assessed as substrate phosphorylation using MBP and ATP as substrate at 1 uM preincubated for 15 mins followed by substrate addition and measured after 90 mins by ADP-Glo luminescence assay; values are per cent of control; settings: time 105.0 min

Structure (SMILES)	EC50 (HT-29)	also measured
Cn1c(=O)c(NC(=O)Cc2ccccc2)c(Cl)n(CC#Cc2cccc(O)c2)c1=O	1490 nM	–
Cc1ccc(CCC(=O)Nc2c(Cl)n(CC#Cc3cccc(Cn4ccc(C)cc4=O)c3)c(=O)n(C)c2=O)cc1	106 nM	–
Cc1ccc(CCC(=O)Nc2c(Cl)n(CC#Cc3ccc(Cn4ccccc4=O)cc3)c(=O)n(C)c2=O)cc1	168 nM	–
Cc1ccc(C(=O)Nc2ccc(CN3CCN(C)CC3)c(C(F)(F)F)c2)cc1C#Cc1cnc2cccnn12 [PONATINIB]	440 nM	residual activity [1]: 0.4%; residual activity [2]: 3.8%; residual activity [3]: 0.31%; residual activity [4]: 0.97%
Cc1ccc(CCC(=O)Nc2c(Cl)n(CC#Cc3ccc(NCc4ccccc4)cc3)c(=O)n(C)c2=O)cc1	2020 nM	–
Cc1ccc(CCC(=O)Nc2c(Cl)n(CC#Cc3ccc(O)cc3)c(=O)n(C)c2=O)cc1	222 nM	residual activity [1]: 96.1%; residual activity [2]: 92.1%; residual activity [3]: 102%; residual activity [4]: 90.5%
C#CCn1c(Cl)c(NC(=O)CCc2ccc(C)cc2)c(=O)n(C)c1=O	7240 nM	–
C=CS(=O)(=O)Nc1c(OC)n(CC#Cc2cccc(O)c2)c(=O)n(C)c1=O	> 10000 nM	–
Cc1ccc(CCC(=O)Nc2c(Cl)n(CC#Cc3cccc(Cn4c(C)cccc4=O)c3)c(=O)n(C)c2=O)cc1	122 nM	–
Cc1ccc(CCC(=O)Nc2c(Cl)n(CC#Cc3ccc(O)cc3)c(=O)n(CC3CCCC3)c2=O)cc1	> 10000 nM	–
Cc1ccc(CCC(=O)Nc2c(Cl)n(CC#Cc3ccc4[nH]ccc4c3)c(=O)n(C)c2=O)cc1	332 nM	–
Cc1ccc(CCC(=O)Nc2c(Cl)n(CC#Cc3ccc4c(c3)CCC(=O)O4)c(=O)n(C)c2=O)cc1	113 nM	–
Cc1ccc(CCC(=O)Nc2c(Cl)n(CC#Cc3ccc(Cl)c(Cn4ccccc4=O)c3)c(=O)n(C)c2=O)cc1	110 nM	–
Cc1ccc(CCC(=O)Nc2c(Cl)n(CC#Cc3cccc(N)c3)c(=O)n(C)c2=O)cc1	1060 nM	–
Cn1c(=O)c(NC(=O)Cc2ccc(Cl)cc2)c(Cl)n(CC#Cc2cccc(O)c2)c1=O	3770 nM	–
Cn1c(=O)c(NC(=O)CC(C)(C)C)c(Cl)n(CC#Cc2cccc(O)c2)c1=O	5280 nM	–
CCCn1c(=O)c(NC(=O)CCc2ccc(C)cc2)c(Cl)n(CC#Cc2ccc(O)cc2)c1=O	1020 nM	–
CCC(C)C(=O)Nc1c(Cl)n(CC#Cc2cccc(O)c2)c(=O)n(C)c1=O (stereo not given)	1740 nM	–
COc1ccc(C#CCn2c(Cl)c(NC(=O)CCc3ccc(C)cc3)c(=O)n(C)c2=O)cc1	3390 nM	–
Cc1ccc(CCC(=O)Nc2c(Cl)n(CC#Cc3cccc(Cn4cc(C)ccc4=O)c3)c(=O)n(C)c2=O)cc1	158 nM	–
C=CS(=O)(=O)Nc1cn(CC#Cc2cccc(O)c2)c(=O)n(C)c1=O	2480 nM	–
Cc1ccc(CCC(=O)Nc2c(Cl)n(CC#Cc3cccc(Cn4ccccc4=O)c3)c(=O)n(C)c2=O)cc1	136 nM	–

Structure (SMILES)	EC50 (HT-29)	also measured
Cc1ccc(CCC(=O)Nc2c(Cl)n(CC#Cc3cccc(Cn4cccc(C)c4=O)c3)c(=O)n(C)c2=O)cc1	134 nM	–
COc1cccn(Cc2cc(C#CCn3c(Cl)c(NC(=O)CCc4ccc(C)cc4)c(=O)n(C)c3=O)ccc2Cl)c1=O	90 nM	–
CCn1c(=O)c(NC(=O)CCc2ccc(C)cc2)c(Cl)n(CC#Cc2ccc(O)cc2)c1=O	2220 nM	–
Cn1c(=O)c(NC(=O)CCc2ccccc2)c(Cl)n(CC#Cc2cccc(O)c2)c1=O	1070 nM	–
Cc1ccc(CCC(=O)Nc2c(Cl)n(CC#Cc3ccc4c(c3)CCC(=O)N4)c(=O)n(C)c2=O)cc1	132 nM	residual activity [1]: 94.5%; residual activity [2]: 109%; residual activity [3]: 90.5%; residual activity [4]: 102%
COc1ccn(Cc2cccc(C#CCn3c(Cl)c(NC(=O)CCc4ccc(C)cc4)c(=O)n(C)c3=O)c2)c(=O)c1	93 nM	–
C=CC(=O)Nc1c(OC)n(CC#Cc2cccc(O)c2)c(=O)n(C)c1=O	> 10000 nM	–
CCCCCCCC(=O)Nc1c(Cl)n(CC#Cc2cccc(O)c2)c(=O)n(C)c1=O	2340 nM	–
CC(=O)Nc1cccc(C#CCn2c(Cl)c(NC(=O)CCc3ccc(C)cc3)c(=O)n(C)c2=O)c1	870 nM	–
Cc1ccc(CCC(=O)Nc2c(Cl)n(CC#Cc3ccc4c(c3)CCC(=O)N4C)c(=O)n(C)c2=O)cc1	281 nM	–
Cn1c(=O)c(NC(=O)c2ccccc2)c(Cl)n(CC#Cc2cccc(O)c2)c1=O	> 10000 nM	–
Cc1ccc(CCC(=O)Nc2c(Cl)n(CC#Cc3cccc(O)c3)c(=O)n(C)c2=O)cc1	316 nM	–
Cn1c(=O)c(NC(=O)/C=C/c2ccccc2)c(Cl)n(CC#Cc2cccc(O)c2)c1=O	> 10000 nM	–
Cn1c(=O)c(NC(=O)CCCc2ccccc2)c(Cl)n(CC#Cc2cccc(O)c2)c1=O	> 10000 nM	–
COc1cccn(Cc2cccc(C#CCn3c(Cl)c(NC(=O)CCc4ccc(C)cc4)c(=O)n(C)c3=O)c2)c1=O	82 nM	–
Cc1ccc(CCC(=O)Nc2c(Cl)n(CC#Cc3ccccc3)c(=O)n(C)c2=O)cc1	1990 nM	–
COc1cccn(Cc2cc(C#CCn3c(Cl)c(NC(=O)CCc4ccc(C)cc4)c(=O)n(C)c3=O)ccc2F)c1=O	91 nM	–
Cn1c(=O)c(NC(=O)CCc2ccc(F)cc2)c(Cl)n(CC#Cc2cccc(O)c2)c1=O	455 nM	–
Cn1c(=O)c(NC(=O)CCc2ccc(Cl)cc2)c(Cl)n(CC#Cc2cccc(O)c2)c1=O	540 nM	–
C=CS(=O)(=O)Nc1c(C)n(CC#Cc2cccc(O)c2)c(=O)n(C)c1=O	> 10000 nM	–
Cc1ccc(CCC(=O)Nc2c(Cl)n(CC#Cc3ccc(F)c(Cn4ccccc4=O)c3)c(=O)n(C)c2=O)cc1	139 nM	–
C=CS(=O)(=O)Nc1c(Cl)n(CC#Cc2cccc(O)c2)c(=O)n(C)c1=O	5680 nM	–

Structure (SMILES)	EC50 (HT-29)	also measured
Cn1c(=O)c(NC(=O)CCc2ccccc2F)c(Cl)n(CC#Cc2cccc(O)c2)c1=O	829 nM	–
COc1ccc(C#CCn2c(Cl)c(NC(=O)CCc3ccc(C)cc3)c(=O)n(C)c2=O)cc1Cn1cccc(OC)c1=O	85 nM	residual activity [1]: 101%; residual activity [2]: 111%; residual activity [3]: 99.3%; residual activity [4]: 96.3%
Cc1ccc(CCC(=O)Nc2c(Cl)n(CC#Cc3ccc(N)cc3)c(=O)n(C)c2=O)cc1	1020 nM	–
C=CC(=O)Nc1c(C)n(CC#Cc2cccc(O)c2)c(=O)n(C)c1=O	> 10000 nM	–
Cn1c(=O)c(NC(=O)CCc2cccc(F)c2)c(Cl)n(CC#Cc2cccc(O)c2)c1=O	6300 nM	–
COc1ccc(C#CCn2c(Cl)c(NC(=O)CCc3ccc(C)cc3)c(=O)n(C)c2=O)cc1Cn1ccccc1=O	85 nM	–
Cn1c(=O)c(NC(=O)Cc2cccc(F)c2)c(Cl)n(CC#Cc2cccc(O)c2)c1=O	2320 nM	–
COc1ccc(CC(=O)Nc2c(Cl)n(CC#Cc3cccc(O)c3)c(=O)n(C)c2=O)cc1	1400 nM	–
CC(=O)Nc1ccc(C#CCn2c(Cl)c(NC(=O)CCc3ccc(C)cc3)c(=O)n(C)c2=O)cc1	717 nM	–
CCC(C)(C)C(=O)Nc1c(Cl)n(CC#Cc2cccc(O)c2)c(=O)n(C)c1=O	> 10000 nM	–
Cn1c(=O)c(NC(=O)CCc2ccc(C#N)cc2)c(Cl)n(CC#Cc2cccc(O)c2)c1=O	639 nM	–
Cn1c(=O)c(NC(=O)Cc2ccccc2F)c(Cl)n(CC#Cc2cccc(O)c2)c1=O	3350 nM	–
Cc1ccc(CCC(=O)Nc2c(Cl)n(CC#Cc3cccc(NC(=O)c4ccccc4)c3)c(=O)n(C)c2=O)cc1	1000 nM	–
Cc1ccc(CCC(=O)Nc2c(Cl)n(CC#Cc3ccc4cc[nH]c4c3)c(=O)n(C)c2=O)cc1	727 nM	–
C=CC(=O)Nc1cn(CC#Cc2cccc(O)c2)c(=O)n(C)c1=O	> 10000 nM	–
C=CC(=O)Nc1c(Cl)n(CC#Cc2cccc(O)c2)c(=O)n(C)c1=O	950 nM	residual activity [1]: 86.2%; residual activity [2]: 84.2%; residual activity [3]: 108%; residual activity [4]: 102%
CCC(=O)Nc1c(Cl)n(CC#Cc2cccc(O)c2)c(=O)n(C)c1=O	3380 nM	–
CCc1ccc(CCC(=O)Nc2c(Cl)n(CC#Cc3cccc(O)c3)c(=O)n(C)c2=O)cc1	998 nM	–
Cc1ccc(CCC(=O)Nc2c(Cl)n(CC#Cc3ccc(NC(=O)c4ccccc4)cc3)c(=O)n(C)c2=O)cc1	214 nM	–
COCCOCC(=O)Nc1c(Cl)n(CC#Cc2cccc(O)c2)c(=O)n(C)c1=O	4270 nM	–
Cn1c(=O)c(NC(=O)Cc2ccc(F)cc2)c(Cl)n(CC#Cc2cccc(O)c2)c1=O	4600 nM	–
